Earlier results in patent US20250134147A1, “METHODS AND COMPOSITIONS FOR IMPROVED SUGAR-LIKE TASTE” (ALMENDRA (THAILAND) LTD., priority 2021, published 2025).
Read-outs that look alike come from different tables or passages of the source.

Legend:
[1] = for sweetness potency, times higher than sucrose: relative to sucrose, Tanaka 1987 / Phillips 1989; for sweetness potency, times more potent than sucrose: sensory evaluations, Crammer and Ikan 1986
[2] = comparison among steviol glycosides
[3] = Kinghorn 2002

SMILES	sweetness potency, times higher than sucrose [1]	taste quality / sensory attributes [2]	further results
C=C1C[C@@]23CC[C@H]4[C@@](C)(CCC[C@@]4(C)C(=O)O[C@@H]4O[C@H](CO)[C@@H](O)[C@H](O)[C@H]4O)[C@@H]2CC[C@]1(O[C@@H]1O[C@H](CO)[C@@H](O)[C@H](O)[C@H]1O[C@@H]1O[C@@H](C)[C@H](O)[C@@H](O)[C@H]1O)C3 [Dulcoside A]	30 times		
C=C1C[C@@]23CC[C@H]4[C@@](C)(CCC[C@@]4(C)C(=O)O[C@@H]4O[C@H](CO)[C@@H](O)[C@H](O)[C@H]4O)[C@@H]2CC[C@]1(O[C@@H]1O[C@H](CO)[C@@H](O)[C@H](O[C@@H]2O[C@H](CO)[C@@H](O)[C@H](O)[C@H]2O)[C@H]1O[C@@H]1O[C@H](CO)[C@@H](O)[C@H](O)[C@H]1O)C3 [Rebaudioside A, (3R,4S,5S,6R)-3,4,5-trihydroxy-6-(hydroxymethyl)tetrahydro-2H-pyran-2-yl(4R,4αS,11αR,11βS)-10-(((2R,3R,5R,6R)-5-hydroxy-6-(hydroxymethyl)-3,4-bis(((2S,3R,4S,5S,6R)-3,4,5-trihydroxy-6-(hydroxymethyl)tetrahydro-2H-pyran-2-yl)oxy)tetrahydro-2H-pyran-2-yl)oxy)-4,11β-dimethyl-8-methylenetetradecahydro-6α,9-methanocyclohepta[a]naphthalene-4-carboxylate]		the least astringent, the least bitter, and the least persistent aftertaste	sweetness potency, times more potent than sucrose [1]: 350-450 times; taste quality / sensory attributes ([2]; listed as rebaudioside A): clearly surpasses stevioside and rebaudioside B
C=C1C[C@@]23CC[C@H]4[C@@](C)(CCC[C@@]4(C)C(=O)O)[C@@H]2CC[C@]1(O[C@@H]1O[C@H](CO)[C@@H](O)[C@H](O[C@@H]2O[C@H](CO)[C@@H](O)[C@H](O)[C@H]2O)[C@H]1O[C@@H]1O[C@H](CO)[C@@H](O)[C@H](O)[C@H]1O)C3 [Rebaudioside B, (4R,4αS,6αR,9S,11αR,11βS)-9-(((2S,3R,5R,6R)-5-hydroxy-6-(hydroxymethyl)-4-(((2S,3R,4S,5S,6R)-3,4,5-trihydroxy-6-(hydroxymethyl)tetrahydro-2H-pyran-2-yl)oxy)-3-(((3R,4S,5S,6R)-3,4,5-trihydroxy-6-(hydroxymethyl)tetrahydro-2H-pyran-2-yl)oxy)tetrahydro-2H-pyran-2-yl)oxy)-4,11β-dimethyl-8-methylenetetradecahydro-6α,9-methanocyclohepta[a]naphthalene-4-carboxylic acid]			sweetness potency, times more potent than sucrose [1]: 300-350 times; water solubility [3]: about 0.1%
C=C1C[C@@]23CCC4[C@@](C)(CCC[C@@]4(C)C(=O)OC4O[C@H](CO)[C@@H](O)[C@H](O)[C@H]4O)C2CC[C@]1(O[C@@H]1O[C@H](CO)[C@@H](O)[C@H](O[C@@H]2O[C@H](CO)[C@@H](O)[C@H](O)[C@H]2O)[C@H]1O[C@H]1O[C@H](C)[C@@H](O)[C@H](O)[C@@H]1O)C3 (some centres unmarked) [Rebaudioside C]	40-60 times		
C=C1C[C@@]23CC[C@H]4[C@@](C)(CCC[C@@]4(C)C(=O)O[C@@H]4O[C@H](CO)[C@@H](O)[C@H](O)[C@H]4O[C@@H]4O[C@H](CO)[C@@H](O)[C@H](O)[C@H]4O)[C@@H]2CC[C@]1(O[C@@H]1O[C@H](CO)[C@@H](O)[C@H](O[C@@H]2O[C@H](CO)[C@@H](O)[C@H](O)[C@H]2O)[C@H]1O[C@@H]1O[C@H](CO)[C@@H](O)[C@H](O)[C@H]1O)C3 [Rebaudioside D]		very desirable taste profile	
C=C1C[C@@]23CC[C@H]4[C@@](C)(CCC[C@@]4(C)C(=O)O)[C@@H]2CC[C@]1(O[C@@H]1O[C@H](CO)[C@@H](O)[C@H](O)[C@H]1O[C@@H]1O[C@H](CO)[C@@H](O)[C@H](O)[C@H]1O)C3 [Steviolbioside]		significantly inferior to that of stevioside	
C=C1C[C@@]23CC[C@H]4[C@@](C)(CCC[C@@]4(C)C(=O)O[C@@H]4O[C@H](CO)[C@@H](O)[C@H](O)[C@H]4O)[C@@H]2CC[C@]1(O[C@@H]1O[C@H](CO)[C@@H](O)[C@H](O)[C@H]1O[C@@H]1O[C@H](CO)[C@@H](O)[C@H](O)[C@H]1O)C3 [Stevioside]	110-270 times		
C=C1C[C@@]23CC[C@H]4[C@@](C)(CCC[C@@]4(C)C(=O)O[C@@H]4O[C@H](CO)[C@@H](O)[C@H](O)[C@H]4O)[C@@H]2CC[C@]1(O[C@@H]1O[C@H](CO)[C@@H](O)[C@H](O)[C@H]1O)C3 [rubusoside]		significantly inferior to that of stevioside	
